Experimental findings from PubChem BioAssay AID504703 (Southern Research Specialized Biocontainment Screening …, 2011) are described below.

The assay has as its system M. tuberculosis H37Rv growth inhibition with meropenem. Nature of the assay: H37Rv growth inhibition with and without meropenem, dose response, set 2 (AID 504703).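 Note: growth ran 7 days at 37 °C then overnight with Alamar Blue before reading.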
[1] abbreviates: M. tuberculosis H37Rv growth inhibition, measured here: IC50 without meropenem.
Setting [2] is: M. tuberculosis H37Rv growth inhibition, measured here: IC90 without meropenem.
The mark [3] stands for this setting: measured here: IC90 with meropenem.

Several values for one entry are separate records, joined by “and”; a condition that tells them apart may be missing. Equal values may be shown once. Activity calls are given as the source filed them. The rule behind the calls is not given here. Bounds are passed on as bounds.

In the case of `COc1ccc(C(=O)Nc2ccc3nc(N4CCCCC4)cc(C)c3c2)c(OC)c1`, the IC50 (in general, the point on the concentration scale where inhibition reaches its midpoint) is 17600 nM (inactive). Also, under setting [1], the 50% inhibitory concentration (IC50) was > 25000 nM. Besides, the IC90 – broadly, the point of the concentration-response curve where the effect stands at 90% – under setting [2] is > 25 µM. Further, under setting [3], the IC90 was > 25 µM.

Consider `CCOc1ccc2nc(NC(=O)C(C)Oc3ccccc3F)sc2c1` (stereo not given), for which the IC50 under setting [1] is > 25000 nM. Besides, the IC90 under setting [2] is > 25 µM.

As to `CCOc1ccc2[nH]cc(C(=O)OC)c2c1`, the IC50 is > 25000 nM (inactive). Further, the IC50 under setting [1] was > 25000 nM. For the same compound, the IC90 under setting [2] is > 25 µM. Under setting [3], the IC90 is > 25 µM.

Turning to `CCC(CC)c1nnc(NC(=O)c2ccc(N3CCCCC3)c([N+](=O)[O-])c2)s1`, the IC50 under setting [1] is > 25000 nM. In addition, under setting [2], the IC90 was > 25 µM.

Regarding `Cc1ccc(C(C)C)c(OCC(=O)Nc2nc3ccccc3s2)c1`, the IC50 under setting [1] was > 25000 nM. Moreover, the IC90 under setting [2] is > 25 µM.

`O=C(COc1ccc2ccccc2c1)Nc1nc2ccccc2[nH]1`: the IC50 is > 18.8 µM (inactive) and 8.87 µM (inactive). Also, the IC50 under setting [1] was > 18800 nM and 15500 nM. The IC90 under setting [2] is > 25 µM. Further, the 90% effect concentration (IC90) under setting [3] was > 25 µM.

`Cc1ccccc1OCC(=O)Nc1ccccc1-c1ccccc1`: the IC50 was 14600 nM (inactive). Also, the IC50 under setting [1] was > 25000 nM. The IC90 under setting [2] was > 25 µM. Moreover, under setting [3], the IC90 was > 25 µM.

For the compound `CC(=O)c1c(C)n(-c2ccccc2)c2ccc(OS(=O)(=O)C(F)(F)F)cc12`, the IC50 was > 25000 nM (inactive). Moreover, under setting [1], the half-maximal inhibitory concentration (IC50) was > 25000 nM. Further, the IC90 under setting [2] was > 25 µM. The IC90 under setting [3] is > 25 µM.

As to `CCCOc1ccc2c(c1)c(C(C)=O)c(C)n2-c1ccccc1`, under setting [1], the 50% inhibitory concentration (IC50) is > 25000 nM. Also, the 90% effect concentration (IC90) under setting [2] was > 25 µM.

On to `CCOC(=O)c1c(C)[nH]c2ccccc12`, for which the IC50 under setting [1] is > 25000 nM. Under setting [2], the IC90 is > 25 µM.

`Cc1ccccc1OCC(=O)Nc1noc(-c2ccccc2)n1`: the half-inhibitory concentration (IC50) under setting [1] was > 25000 nM. The IC90 under setting [2] was > 25 µM.

Consider `Cc1ccccc1C(=O)Nc1nc2ccccc2[nH]1`, for which the IC50 is 8750 nM (inactive). Under setting [1], this compound registered an IC50 of 18000 nM. For the same compound, the IC90 under setting [2] was > 25 µM. For the same compound, under setting [3], the 90% effect concentration (IC90) is > 25 µM.

For `Cc1cc2cc(Cl)ccc2n1-c1ccccc1`, the IC50 under setting [1] is > 25000 nM. Moreover, under setting [2], the IC90 was > 25 µM.

Consider `Cc1cc(C)c(OCC(=O)Nc2nc3ccccc3s2)c(Cl)c1`, for which the IC50 under setting [1] was > 25000 nM. The IC90 under setting [2] was > 25 µM.

As for `O=C(COc1ccccc1)Nc1nc2ccccc2s1`, the IC50 under setting [1] is > 25000 nM. Also, the IC90 under setting [2] is > 25 µM.

As to `Cc1ccccc1OCC(=O)Nc1ncn[nH]1`, under setting [1], the IC50 is > 25000 nM. Further, under setting [2], the IC90 is > 25 µM.

With `CCOc1ccc2c(c1)c(C(C)=O)c(C)n2Cc1ccco1`, the IC50 under setting [1] was > 25000 nM. Besides, the IC90 under setting [2] was > 25 µM.

`COc1ccc2nc(NC(=O)COc3c(C)cc(C)cc3C)sc2c1`: the IC50 under setting [1] was > 25000 nM. Besides, under setting [2], the IC90 is > 25 µM.

As to `CCOc1ccc2nc(NC(=O)Cc3ccc(OC)cc3)sc2c1`, under setting [1], the IC50 was > 25000 nM. Moreover, the IC90 under setting [2] was > 25 µM.

Turning to `CC(=O)c1c(C)n(-c2ccccc2)c2ccc(O)cc12`, the IC50 is 20100 nM (inactive). For the same compound, the IC50 under setting [1] is > 25000 nM. For the same compound, the concentration for an effect of 90% (IC90) under setting [2] is > 25 µM. Moreover, the IC90 under setting [3] was > 25 µM.

On to `COc1cccc(-c2ccc(-c3noc(-c4ccccc4F)n3)c(OC)n2)c1`, for which the IC50 is > 25000 nM (inactive). For the same compound, under setting [1], the IC50 was > 25000 nM. Further, under setting [2], the concentration for an effect of 90% (IC90) was > 25 µM. Also, the concentration for an effect of 90% (IC90) under setting [3] was > 25 µM.

Turning to `c1ccc(-c2cc(N3CCOCC3)nc3ccccc23)cc1`, the IC50 is 10000 nM (inactive). Moreover, under setting [1], the IC50 is > 25000 nM. Besides, the IC90 under setting [2] was > 25 µM. The IC90 under setting [3] was > 18.8 µM.

Consider `COC(=O)c1sc(-c2ccc(C(C)(C)C)cc2)cc1NC(=O)CCC(=O)O`, for which the IC50 was 7320 nM (inactive). Also, under setting [1], the IC50 was 13500 nM and 9450 nM. Also, the IC90 under setting [2] is > 25 µM. Also, under setting [3], the 90% effect concentration (IC90) is > 25 µM.

With `N/C(=N\c1nc2ccccc2o1)NC(=O)c1ccccc1`, the IC50 under setting [1] was > 25000 nM. In addition, the concentration for an effect of 90% (IC90) under setting [2] was > 25 µM.

Take `O=C(Cc1ccccc1Cl)Nc1nc2ccccc2[nH]1`: the IC50 is 18900 nM (inactive). Besides, under setting [1], the IC50 is > 18800 nM and 16400 nM. Besides, the IC90 under setting [2] was > 25 µM. In addition, the IC90 under setting [3] was > 25 µM.

As for `COC(=O)c1c(C)[nH]c2ccccc12`, the IC50 under setting [1] was > 25000 nM. Besides, the IC90 under setting [2] is > 25 µM.

On to `Cc1ccc2oc(/N=C(\N)NC(=O)c3ccccc3)nc2c1`, for which the half-inhibitory concentration (IC50) under setting [1] is > 25000 nM. In addition, the IC90 under setting [2] is > 25 µM.

Take `CCOc1ccc2c(c1)c(CC)c(C)n2-c1ccccc1`: the IC50 under setting [1] is > 25000 nM. The IC90 runs as follows: under setting [2], > 25 µM; under setting [3], > 25 µM.

On to `CC(Oc1ccccc1)C(=O)Nc1nc2ccc(S(C)(=O)=O)cc2s1` (stereo not given), for which the concentration for half-maximal inhibition (IC50) under setting [1] was > 25000 nM. Further, the IC90 under setting [2] was > 25 µM.

As for `CC(=O)c1c(C)n(-c2ccccc2)c2ccccc12`, the IC50 was 11600 nM (inactive). For the same compound, the IC50 under setting [1] is > 25000 nM. Further, under setting [2], the 90% effect concentration (IC90) was > 25 µM. For the same compound, the 90% effect concentration (IC90) under setting [3] is > 25 µM.
